Data on four compounds can be found in patent US20210087159A1, “TETRAHYDROCANNABINOLIC- CA[…] DERIVATIVES AND USES THEREOF” (AL&AM […]., priority 2018, published 2021).

Type in all cases: cell-based
Test [1] has as its system U251, brain human glioma. The test is described as follows: CellTiter-Glo cell viability assay, cancer cell cytotoxicity/anti-proliferation panel (Chempartner). The settings on record: for IC50: Homo sapiens, U-251, 72 h, read-out: IC50 (absolute IC50); for Inhibition: U251, 72 hours, compounds 10 μM starting, STS 2 μM starting, 10-pt, 3-fold dilution. On the technique in general: Cellular ATP, detected with luciferase, serves as a proxy for viable cell number.

The subject of test [2] is human peripheral blood mononuclear cells (PBMCs). The test is described as follows: Cell proliferation of LPS-challenged PBMCs by CellTiter-Glo (CTG). The settings on record: for CTG signal: human PBMCs, 72 h (LPS control 84.50); for effect on cell proliferation: LPS-treated human PBMCs, CTG. From the text:
This study was aimed to test the effect of 12 compounds (THCA, Ia1, Ia5, Ia6, Ia9, Ia11, Ia15, Ia17, Ia24, Ia25, Ia27, and Ia28) on human peripheral blood mononuclear cells (PBMCs) challenged by lipopolysaccharide (LPS) through monitoring multiple inflammatory endpoints.
Blood samples were collected from healthy volunteers according to protocols that have been reviewed and approved by the Chempartner Institutional Ethic Committee (IEC) upon signing an Informed Consent Form (ICF).
Fresh PBMCs were isolated and seeded into 96-well plate, and diluted solutions of the tested compounds and 0.1 μg/mL LPS were then added (in triplicates). To serve as control, 3 wells with PBMCs only, 3 wells with 0.1 μg/mL LPS, and 2 wells with 1 μg/mL dexamethasone (Dex) and 0.1 μg/mL LPS were included. After 72 hours incubation, supernatant was collected for tumor necrosis factor-α (TNF-α) measurement by enzyme-linked immunosorbent assay (ELISA), and cell pellets were harvested for cell proliferation measurement by CellTiter-Glo® Luminescent Cell Viability Assay (CTG).
The human blood sample from an individual donor was diluted by the same volume of sterile phosphate buffered solution (PBS) and mixed sufficiently by gentle shake. 15 mL Lymphoprep™ medium was transferred into a new 50 mL centrifuge tube, and the diluted blood sample (30 mL) was then carefully added onto the surface of the medium, which consequently contained Ficoll 400 and blood in a volume ratio of 1:2. Four interfaces were observed after centrifugation, which are, from top to bottom, layers of plasma, mononuclear cells, Ficoll medium, and red blood cells (RBCs). Plasma was absorbed, and mononuclear cells were then transferred into another new sterile centrifuge tube. Then, sterile PBS buffer was added into the collected PBMCs for washing, at a volume ratio of 3:1. PBMCs were washed with 5-10 mL PBS twice before cell counting with cytometer. Cells were centrifuged at 350×g, for 10 min, at 20° C. with the acceleration (5) and deceleration (5) settings during the centrifugation. The cells were resuspended with RPMI 1640 complete medium (containing 10% FBS) for assay, and the density was adjusted with RPMI 1640 complete medium to the final concentration of 2E6 cells/mL. Cells suspension of the PBMCs (100 μL/well) were seeded into 96-well plate (#3903).
Diluted solutions of the tested compounds were prepared with RPMI 1640 complete medium according to the following layout. Compounds were prepared at 5-fold of concentration (50 μM), and then were diluted to the working concentration of 10 μM with RPMI 1640 complete medium and made 10-fold serially dilution (2 points). The diluted compounds (50 μL/well) were added to the indicated wells, and the plate was incubated at 37° C., 5% CO2, for 72 h.
LPS (0.1 μg/mL, 100 μL) was added into each well. Dex (1 μg/mL) was included as a positive control. Plate was incubated at 37° C., 5% CO2 for 72 h. Supernatant was collected to measure TNF-α by ELISA. Cell proliferation was detected by CTG.

The test system of test [3] is A549 (lung carcinoma). The test is described as follows: XTT cytotoxicity assay (Pharma Seed). The settings on record: Homo sapiens, 48 hours, 20, 10, 5, 1 μM, assay medium 1% FBS. The method, then: In this study, the cytotoxicity of several compounds of the present invention on lung and pancreatic cancer cell was evaluated.
A549 (lung carcinoma) culture medium: F12-K, supplemented with 10% FBS (heat inactivated), 2 mM L-glutamine, and 1% of Pen/Strep/Amp solution. A549 assay medium: F12-K, supplemented with 1% FBS (heat inactivated), 2 mM L-glutamine, and 1% of Pen/Strep/Amp solution.
Each of the tested compounds was dissolved in DMSO to reach a stock concentration of 20 mM (and stored at −15° C.-−25° C. until use. Compound Ia28 (MW 484 g/mol, 3.05 mg total) was dissolved in 0.315 mL; compound Ia9 (MW 484 g/mol, 2.33 mg total) was dissolved in 0.241 mL; and compound Ia6 (MW 428.3 g/mol, 2.25 mg total) was dissolved in 0.262 mL.
On the day of incubation with the cells, each compound was diluted in DMSO to reach 2 mM, 1 mM, 0.5 mM, 0.1 mM stock concentrations (1:10, 1:20, 1:40 and 1:200), and each of these stocks was further diluted in assay medium 1:100 for final concentration of 20 μM, 10 μM, 5 μM, and 1 μM.
Part 1—cell number calibration. PANC-1 and A549 cells were each plated in a 96 well plate, in their culture medium, at various cell concentrations per well, in triplicates, and were allowed to attach for 24 hours. Thereafter, culture medium was discarded, assay medium was added, and the cells were incubated for additional 72 hours. Finally, assay medium was discarded, and fresh culture medium was added to the cells along with 50 μl XTT reagent. The OD was measured every two hours for 6 hours (three times).
The highest cells number/well were chosen for part 2 as follows: PANC-1 at 7,500 cells per well, A549 at 5000 cells per well.
Part 2—cells incubation with tested compounds. PANC-1 and A549 cells were plated in a 96 well plate, in their culture medium, at the optimal cell concentration according to the results from the previous section and were allowed to attach for 24 hours. […] The OD was measured at the optimal time point according to the results in the previous section.
A general note: Formazan colour is commonly taken as a measure of viable cells.

Where only a bound is given, the exact number is not on record here.

With `CCCCCc1cc2c(c(O)c1C(=O)O)[C@@H]1C=C(C)CC[C@H]1C(C)(C)O2` [THCA, tetrahydrocannabinolic acid, reference compound], in test [1], the IC50 (as a rule, the concentration that gives 50% inhibition) is > 10 µM and the Inhibition – broadly, the relative decrease from the control value, in per cent – was determined as 17.22%. The CTG signal in test [2] (compound 1 μM + 0.1 μg/mL LPS) is 74.89 10^4. The CTG signal in test [2] (compound 10 μM + 0.1 μg/mL LPS) was 75.54 10^4.

Turning to `C=C(C)[C@@H]1CCC(C)=C[C@H]1c1c(O)cc(CCCCC)c(C(=O)NCCCN2CCOCC2)c1O` [Ia28, (1′R,2′R)-2,6-dihydroxy-5′-methyl-N-(3-morpholinopropyl)-4-pentyl-2′-(prop-1-en-2-yl)-1′,2′,3′,4′-tetrahydro-[1,1′-biphenyl]-3-carboxamide], in test [3], the IC50 amounted to 11 µM. Besides, the CTG signal in test [2] (compound 1 μM + 0.1 μg/mL LPS) was 76.24 10^4; in test [2] (compound 10 μM + 0.1 μg/mL LPS), 72.61 10^4.

For the compound `CCCCCc1cc2c(c(O)c1C(=O)NCCN(C)C)[C@@H]1C=C(C)CC[C@H]1C(C)(C)O2` [Ia6, (6aR,0aR)—N-(2-(dimethylamino)ethyl)-1-hydroxy-6,6,9-trimethyl-3-pentyl-6a,7,8,10a-tetrahydro-6H-benzo[c]chromene-2-carboxamide], the IC50 was 7.23 µM in test [1] and 5.2 µM in test [3]. The compound further yielded an Inhibition in test [1] of 70.02%. In addition, the “effect on cell proliferation” value in test [2] was “inhibition of cell proliferation”. Further, the CTG signal is 80.67 10^4 in test [2] (compound 1 μM + 0.1 μg/mL LPS) and 37.67 10^4 in test [2] (compound 10 μM + 0.1 μg/mL LPS).

As for `CCCCCc1cc2c(c(O)c1C(=O)NCCCN1CCOCC1)[C@@H]1C=C(C)CC[C@H]1C(C)(C)O2` [Ia9, (6aR,0aR)-1-hydroxy-6,6,9-trimethyl-N-(3-morpholinopropyl)-3-pentyl-6a,7,8,10a-tetrahydro-6H-benzo[c]chromene-2-carboxamide], the IC50 in test [1] worked out at 8.91 µM; in test [3], 7.8 µM. In test [1], this compound displayed an Inhibition of 68.11%. Moreover, in test [2], the “effect on cell proliferation” value is “inhibition of cell proliferation”. Moreover, the CTG signal was 77.55 10^4 in test [2] (compound 1 μM + 0.1 μg/mL LPS) and 23.31 10^4 in test [2] (compound 10 μM + 0.1 μg/mL LPS).
